Broadly, the EC50 is the concentration that produces a half-maximal response. A high value points to a less potent agent.

For this test, the target named is T1, hFXR (Homo sapiens, UniProt Q96RI1).
T1 construct: expressed in transfected cells; host or cells: CV-1 cells
T1 sequence (Q96RI1 1-486): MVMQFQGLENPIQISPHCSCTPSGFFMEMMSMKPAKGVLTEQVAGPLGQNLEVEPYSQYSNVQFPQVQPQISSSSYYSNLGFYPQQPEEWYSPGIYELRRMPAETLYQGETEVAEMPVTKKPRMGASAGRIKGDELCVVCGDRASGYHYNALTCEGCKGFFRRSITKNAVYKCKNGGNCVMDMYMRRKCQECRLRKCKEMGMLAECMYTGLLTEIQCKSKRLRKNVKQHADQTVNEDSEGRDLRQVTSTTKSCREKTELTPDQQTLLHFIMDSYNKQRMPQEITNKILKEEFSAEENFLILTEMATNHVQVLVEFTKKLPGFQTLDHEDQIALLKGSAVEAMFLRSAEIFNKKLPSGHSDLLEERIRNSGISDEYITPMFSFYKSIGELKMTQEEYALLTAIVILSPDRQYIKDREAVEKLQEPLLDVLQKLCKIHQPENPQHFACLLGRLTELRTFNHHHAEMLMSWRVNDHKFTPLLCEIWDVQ
T1 sequence (P19793 1-462 partner): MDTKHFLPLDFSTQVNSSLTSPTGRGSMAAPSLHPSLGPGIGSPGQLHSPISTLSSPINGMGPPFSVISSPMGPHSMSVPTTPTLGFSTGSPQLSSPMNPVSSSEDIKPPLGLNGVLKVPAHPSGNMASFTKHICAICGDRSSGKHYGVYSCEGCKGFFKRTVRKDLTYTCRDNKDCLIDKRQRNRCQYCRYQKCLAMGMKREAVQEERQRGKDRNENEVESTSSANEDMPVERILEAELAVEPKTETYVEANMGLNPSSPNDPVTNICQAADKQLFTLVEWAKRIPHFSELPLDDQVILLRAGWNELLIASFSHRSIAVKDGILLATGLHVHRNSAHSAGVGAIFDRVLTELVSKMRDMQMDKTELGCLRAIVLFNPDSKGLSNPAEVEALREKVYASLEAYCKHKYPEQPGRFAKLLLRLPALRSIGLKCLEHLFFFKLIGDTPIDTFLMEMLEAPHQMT
Briefly: In Vitro FXR Assay (TK): hFXR/hRXR TK-ECRE-luc reporter in transfected CV-1 cells. The format is cell-based. The settings on record: 18 hrs incubation, luminescence, compounds with maximum efficacy <25% of the Fexarmine control classified as '+'. How it is done: Example B-1: In Vitro FXR Assay (TK)
CV-1 cells were seeded at a density of 2,000,000 cells in a T175 flask with DMEM+10% charcoal double-stripped FBS and incubated at 37° C. in 5% CO2 for 18 h (O/N).
After 18 h of incubation, the medium in the T175 flask was changed with fresh DMEM+10% charcoal super-stripped serum. In a polypropylene tube, 2500 μL OptiMEM (Life Technologies, Cat #31985-062) was combined with expression plasmids for hFXR, hRXR, TK-ECRE-luc and pCMX-YFP. The tube was then briefly vortexed and incubated at room temperature for 5 minutes. Transfection reagent (X-tremeGENE HP from Roche, Cat #06 366 236 001) was added to the OptiMEM/plasmid mixture vortexed and incubated at room temperature for 20 minutes. Following incubation, the transfection reagent/DNA mixture complex was added to cells in the T175 flask and the cells were incubated at 37° C. in 5% CO2 for 18 h (O/N).
Compounds were serially diluted in DMSO and added to transfected CV-1 cells. The cells were then incubated for 18 hrs. The next day cells were lysed and examined for luminescence.
As to `COc1ccc([C@H]2CC[C@H](CN(c3cccc(C#Cc4ncc(C)s4)c3)C(=O)[C@H]3CC[C@H](O)CC3)CC2)cc1C` [Compound 8.02, trans-4-Hydroxy-N-((trans-4-(4-methoxy-3-methylphenyl)cyclohexyl)methyl)-N-(3-((5-methylthiazol-2-yl)ethynyl)phenyl)cyclohexanecarboxamide], the EC50 is ≤ 250 nM. With `COc1ccc([C@H]2CC[C@H](CN(c3cccc(-c4cnc(C(C)C)s4)c3)C(=O)[C@H]3CC[C@H](O)CC3)CC2)nc1C` [Compound 9.27, trans-4-Hydroxy-N-(3-(2-isopropylthiazol-5-yl)phenyl)-N-((trans-4-(5-methoxy-6-methylpyridin-2-yl)cyclohexyl)methyl)cyclohexanecarboxamide], the EC50 is ≤ 250 nM. Regarding `CN(C)c1ccc(C23CCC(CN(c4cccc(-c5cnc(C6CC6)s5)c4)C(=O)[C@H]4CC[C@H](O)CC4)(CC2)CC3)cn1` [Compound 9.13, trans-N-(3-(2-Cyclopropylthiazol-5-yl)phenyl)-N-((4-(6-(dimethylamino)pyridin-3-yl)bicyclo[2.2.2]octan-1-yl)methyl)-4-hydroxycyclohexanecarboxamide], the concentration for a half-maximal effect (EC50) was ≤ 250 nM.

Consider `COc1ncc(-c2ccnc(N(C[C@H]3CC[C@H](c4ccc(OC)c(C)c4)CC3)C(=O)[C@H]3CC[C@H](O)CC3)c2)s1` [Compound 6.01, trans-4-Hydroxy-N-((trans-4-(4-methoxy-3-methylphenyl)cyclohexyl)methyl)-N-(4-(2-methoxythiazol-5-yl)pyridin-2-yl)cyclohexanecarboxamide], for which the concentration giving a half-maximal response (EC50) is ≤ 250 nM. On to `COc1ccc([C@H]2CC[C@H](CN(c3cccc(-c4cnc(CCO)s4)c3)C(=O)[C@H]3CC[C@H](O)CC3)CC2)cc1C` [Compound 7.20, trans-4-Hydroxy-N-(3-(2-(2-hydroxyethyl)thiazol-5-yl)phenyl)-N-((trans-4-(4-methoxy-3-methylphenyl)cyclohexyl)methyl) cyclohexanecarboxamide], for which the EC50 is 250 to 1000 nM.

Regarding `COc1ccc(C23CCC(CN(c4cc(-c5cnc(C6CC6)s5)ccn4)C(=O)[C@H]4CC[C@H](O)CC4)(CC2)CC3)cc1C` [Compound 6.05, trans-N-(4-(2-Cyclopropylthiazol-5-yl)pyridin-2-yl)-4-hydroxy-N-((4-(4-methoxy-3-methylphenyl)bicyclo[2.2.2]octan-1-yl)methyl)cyclohexanecarboxamide], the EC50 was ≤ 250 nM.

As for `COc1ncc(-c2cccc(N(C[C@H]3CC[C@H](c4ccc(OC)c(C)c4)CC3)C(=O)C3CCCCC3)c2)s1` [Compound 1.01, N-((trans-4-(4-Methoxy-3-methylphenyl)cyclohexyl)methyl)-N-(3-(2-methoxythiazol-5-yl)phenyl)cyclohexanecarboxamide], the EC50 is ≤ 250 nM. On to `COc1ncc(-c2cccc(N(C[C@H]3CC[C@H](c4ccc(OC)c(C#N)c4)CC3)C(=O)[C@H]3CC[C@H](O)CC3)c2)s1` [Compound 9.06, trans-N-((trans-4-(3-Cyano-4-methoxyphenyl)cyclohexyl)methyl)-4-hydroxy-N-(3-(2-methoxythiazol-5-yl)phenyl)cyclohexanecarboxamide], for which the EC50 is ≤ 250 nM. Under `COc1cnc([C@H]2CC[C@H](CN(c3cccc(-c4cnc(C5CC5)s4)c3)C(=O)[C@H]3CC[C@H](O)CC3)CC2)cc1C` [Compound 9.24, trans-N-(3-(2-Cyclopropylthiazol-5-yl)phenyl)-4-hydroxy-N-((trans-4-(5-methoxy-4-methylpyridin-2-yl)cyclohexyl)methyl)cyclohexanecarboxamide] stands 250 to 1000 nM; under `COc1ncc(-c2cccc(N(C[C@H]3CC[C@H](c4ccc5scnc5c4)CC3)C(=O)[C@H]3CC[C@H](O)CC3)c2)s1` [Compound 9.09, trans-N-((trans-4-(Benzo[d]thiazol-5-yl)cyclohexyl)methyl)-4-hydroxy-N-(3-(2-methoxythiazol-5-yl)phenyl)cyclohexanecarboxamide], ≤ 250 nM; under `COc1ncc(-c2cccc(N(C[C@H]3CC[C@H](c4ccc(OC)c(C)c4)CC3)C(=O)[C@H]3CC[C@H](N)CC3)c2)s1` [Compound 13.01, trans-4-Amino-N-((trans-4-(4-methoxy-3-methylphenyl)cyclohexyl)methyl)-N-(3-(2-methoxythiazol-5-yl)phenyl)cyclohexanecarboxamide], ≥ 1000 nM.

Consider `COc1ccc([C@H]2CC[C@H](CN(c3cccc(-c4cnc(C(=O)O)s4)c3)C(=O)[C@H]3CC[C@H](O)CC3)CC2)cc1C` [Compound 7.28, 5-(3-(trans-4-Hydroxy-N-((trans-4-(4-methoxy-3-methylphenyl)cyclohexyl)methyl)cyclohexanecarboxamido)phenyl)thiazole-2-carboxylic acid], for which the half-maximal effective concentration (EC50) was ≥ 1000 nM. `COc1ccc([C@H]2CC[C@H](CN(c3cccc(-c4cnc(O)s4)c3)C(=O)[C@H]3CC[C@H](O)CC3)CC2)cc1C` [Compound 3, trans-4-Hydroxy-N-(3-(2-hydroxythiazol-5-yl)phenyl)-N-((trans-4-(4-methoxy-3-methylphenyl)cyclohexyl)methyl) cyclohexanecarboxamide] yielded an EC50 of 250 to 1000 nM. For `COc1ccc([C@H]2CC[C@H](CN(c3cc(-c4cnc(C5CC5)s4)ccn3)C(=O)[C@H]3CC[C@H](O)CC3)CC2)cc1C` [Compound 6.04, trans-N-(4-(2-cyclopropylthiazol-5-yl)pyridin-2-yl)-4-hydroxy-N-((trans-4-(4-methoxy-3-methylphenyl)cyclohexyl)methyl) cyclohexanecarboxamide], the EC50 is ≤ 250 nM. For `COc1ccc([C@H]2CC[C@H](CN(c3cccc(-c4cnc(C5CC5)s4)c3)C(=O)[C@H]3CC[C@H](O)CC3)CC2)nc1C` [Compound 9.19, trans-N-(3-(2-Cyclopropylthiazol-5-yl)phenyl)-4-hydroxy-N-((trans-4-(5-methoxy-6-methylpyridin-2-yl)cyclohexyl)methyl)cyclohexanecarboxamide], the EC50 was ≤ 250 nM.

Take `COc1ccc(C23CCC(CN(c4cccc(-c5cnc(C6CC6)s5)c4)C(=O)[C@H]4CC[C@H](O)CC4)(CC2)CC3)cc1C` [Compound 10, trans-N-(3-(2-Cyclopropylthiazol-5-yl)phenyl)-4-hydroxy-N-((4-(4-methoxy-3-methylphenyl)bicyclo[2.2.2]octan-1-yl)methyl)cyclohexanecarboxamide]: the EC50 is ≤ 250 nM. Consider `COc1ccc([C@H]2CC[C@H](CN(c3cccc(-c4cnc(C(C)=O)s4)c3)C(=O)[C@H]3CC[C@H](O)CC3)CC2)cc1C` [Compound 7.24, trans-N-(3-(2-Acetylthiazol-5-yl)phenyl)-4-hydroxy-N-((trans-4-(4-methoxy-3-methylphenyl)cyclohexyl)methyl) cyclohexanecarboxamide], for which the EC50 was 250 to 1000 nM.

Consider `COc1ccc([C@H]2CC[C@H](CN(c3cc(-c4cnc(C5CC5)s4)ccn3)C(=O)[C@H]3CC[C@H](O)CC3)CC2)nc1C#N` [Compound 9.23, trans-N-((trans-4-(6-Cyano-5-methoxypyridin-2-yl)cyclohexyl)methyl)-N-(4-(2-cyclopropylthiazol-5-yl)pyridin-2-yl)-4-hydroxycyclohexanecarboxamide], for which the EC50 is ≤ 250 nM. For the compound `COc1ccc([C@H]2CC[C@H](CN(c3cccc(-c4cnc(SC)s4)c3)C(=O)[C@H]3CC[C@H](O)CC3)CC2)cc1C` [Compound 7.11, trans-4-Hydroxy-N-((trans-4-(4-methoxy-3-methylphenyl)cyclohexyl)methyl)-N-(3-(2-(methylthio)thiazol-5-yl)phenyl)cyclohexanecarboxamide], the concentration giving a half-maximal response (EC50) is ≤ 250 nM. `O=C([C@H]1CC[C@H](O)CC1)N(C[C@H]1CC[C@H](c2ccc3c(c2)OCO3)CC1)c1cccc(-c2cnc(C3CC3)s2)c1` [Compound 9.25, trans-N-((trans-4-(Benzo[d][1,3]dioxol-5-yl)cyclohexyl)methyl)-N-(3-(2-cyclopropylthiazol-5-yl)phenyl)-4-hydroxycyclohexanecarboxamide]: the half-maximal effective concentration (EC50) was ≤ 250 nM.

These data come from patent publication US20200131142A1, “FARNESOID X RECEPTOR AGONISTS AND USES THEREOF” (Metacrine, Inc., priority 2017, published 2020).
